Experimental data as given in ChEMBL document CHEMBL1132878, “Phosphonamidate and phosphothioate dipeptides as potential inhibitors of VanX” (Bioorg Med Chem Lett, 2000).
The source made the active and inactive calls. No cut-off for these calls is given here.

What was measured:
[1] = test system: Stenotrophomonas maltophilia; assay: Tested for inhibitory activity against metallo-beta-lactamase L1 from Stenotrophomonas maltophilia at compound concentration up to […] at pH 7.0 using nitrocefin as substrate; No inhibition; format: functional
[2] = Compound was evaluated for inhibition of Van X at pH 7.0
[3] = Compound was evaluated for inhibition of Van X at pH 7.0; No inhibition
[4] = Compound was evaluated for inhibition of Van X

| Compound | Activity [1] | Ki [2] [µM] | Ki [3] | Kis [4] [µM] |
| --- | --- | --- | --- | --- |
| CC(OP(=O)(O)C(C)N)C(=O)O (configuration not stated) | inactive | 400 |  |  |
| CC(N)P(=O)(O)SCC(=O)O (configuration not stated) | inactive |  | Not Active |  |
| CC(C[PH](=O)C(C)N)C(=O)O (configuration not stated) |  |  |  | 0.32 |
| CC(NP(=O)(O)C(C)N)C(=O)O (configuration not stated) | inactive | 36 |  |  |
